{"source": "ChEMBL document CHEMBL1201862", "about": "“PubChem BioAssay data set” (2004)", "experiment_in_all_cases": "inhibition of tumour cell growth, NCI panel, 48 h", "key": {"[1]": {"test_system": "Malme-3M"}, "[2]": {"test_system": "UACC-257"}, "[3]": {"test_system": "TK-10"}, "[4]": {"test_system": "SR"}, "[5]": {"test_system": "U-251"}, "[6]": {"test_system": "SF-268"}, "[7]": {"test_system": "A498"}, "[8]": {"test_system": "HCT-15"}, "[9]": {"test_system": "RXF 393"}, "[10]": {"test_system": "HCC 2998"}, "[11]": {"test_system": "OVCAR-5"}, "[12]": {"test_system": "Hs-578T"}, "[13]": {"test_system": "NCI/ADR-RES"}, "[14]": {"test_system": "HT-29"}, "[15]": {"test_system": "SNB-75"}, "[16]": {"test_system": "LOX IMVI"}, "[17]": {"test_system": "T47D"}, "[18]": {"test_system": "A549"}, "[19]": {"test_system": "OVCAR-3"}, "[20]": {"test_system": "COLO 205"}}, "note": "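Exposure lasted 48 hours, with cells grown in 96-well plates and compounds tested at five concentrations. GI50: concentration for 50% inhibition of growth.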 Active and inactive are the calls of the source. Cut-off read from the data, not from the text of the source: active = GI50 up to about 1.1 µM and inactive = higher."}
{"smiles": "CS(=O)(=O)Nc1ccc2c(c1)N(S(C)(=O)=O)CC2CCl", "note": "(stereo not given)", "values": [{"measurement": "GI50", "setting": "[1]", "result": "> 100 µM (inactive)"}, {"measurement": "GI50", "setting": "[2]", "result": "> 100 µM (inactive)"}, {"measurement": "GI50", "setting": "[3]", "result": "> 100 µM (inactive)"}, {"measurement": "GI50", "setting": "[4]", "result": "> 100 µM (inactive)"}, {"measurement": "GI50", "setting": "[5]", "result": "> 100 µM (inactive)"}, {"measurement": "GI50", "setting": "[6]", "result": "> 100 µM (inactive)"}, {"measurement": "GI50", "setting": "[7]", "result": "> 100 µM (inactive)"}, {"measurement": "GI50", "setting": "[8]", "result": "> 100", "unit": "µM"}, {"measurement": "GI50", "setting": "[9]", "result": "> 100 µM (inactive)"}, {"measurement": "GI50", "setting": "[10]", "result": "> 100 µM (inactive)"}, {"measurement": "GI50", "setting": "[11]", "result": "> 100 µM (inactive)"}, {"measurement": "GI50", "setting": "[12]", "result": "> 100 µM (inactive)"}, {"measurement": "GI50", "setting": "[13]", "result": "> 100 µM (inactive)"}, {"measurement": "GI50", "setting": "[14]", "result": "> 100 µM (inactive)"}, {"measurement": "GI50", "setting": "[15]", "result": "> 100 µM (inactive)"}, {"measurement": "GI50", "setting": "[16]", "result": "> 100 µM (inactive)"}, {"measurement": "GI50", "setting": "[17]", "result": "> 100 µM (inactive)"}, {"measurement": "GI50", "setting": "[18]", "result": "> 100 µM (inactive)"}, {"measurement": "GI50", "setting": "[19]", "result": "> 100 µM (inactive)"}, {"measurement": "GI50", "setting": "[20]", "result": "> 100 µM (inactive)"}]}
{"smiles": "COc1ccc2c3c([nH]c2c1)[C@H](C=C(C)C)N1C(=O)[C@@H]2CCCN2C(=O)[C@@H]1C3", "note": "[FUMITREMORGIN]", "values": [{"measurement": "GI50", "setting": "[1]", "result": "78.3 µM (inactive)"}, {"measurement": "GI50", "setting": "[2]", "result": "> 100 µM (inactive)"}, {"measurement": "GI50", "setting": "[3]", "result": "29.1 µM (inactive)"}, {"measurement": "GI50", "setting": "[4]", "result": "> 100 µM (inactive)"}, {"measurement": "GI50", "setting": "[5]", "result": "73.1 µM (inactive)"}, {"measurement": "GI50", "setting": "[6]", "result": "44 µM (inactive)"}, {"measurement": "GI50", "setting": "[7]", "result": "> 100 µM (inactive)"}, {"measurement": "GI50", "setting": "[8]", "result": "> 100", "unit": "µM"}, {"measurement": "GI50", "setting": "[9]", "result": "38.1 µM (inactive)"}, {"measurement": "GI50", "setting": "[10]", "result": "37.2 µM (inactive)"}, {"measurement": "GI50", "setting": "[11]", "result": "> 100 µM (inactive)"}, {"measurement": "GI50", "setting": "[12]", "result": "50.9 µM (inactive)"}, {"measurement": "GI50", "setting": "[13]", "result": "> 100 µM (inactive)"}, {"measurement": "GI50", "setting": "[14]", "result": "> 100 µM (inactive)"}, {"measurement": "GI50", "setting": "[15]", "result": "21.7 µM (inactive)"}, {"measurement": "GI50", "setting": "[16]", "result": "> 100 µM (inactive)"}, {"measurement": "GI50", "setting": "[17]", "result": "> 100 µM (inactive)"}, {"measurement": "GI50", "setting": "[18]", "result": "> 100 µM (inactive)"}, {"measurement": "GI50", "setting": "[19]", "result": "> 100 µM (inactive)"}, {"measurement": "GI50", "setting": "[20]", "result": "> 100 µM (inactive)"}]}
{"smiles": "CNC(=S)/C(C#N)=C(\\N)N1CCN(C)CC1", "values": [{"measurement": "GI50", "setting": "[1]", "result": "> 100 µM (inactive)"}, {"measurement": "GI50", "setting": "[2]", "result": "> 100 µM (inactive)"}, {"measurement": "GI50", "setting": "[3]", "result": "> 100 µM (inactive)"}, {"measurement": "GI50", "setting": "[4]", "result": "> 100 µM (inactive)"}, {"measurement": "GI50", "setting": "[5]", "result": "> 100 µM (inactive)"}, {"measurement": "GI50", "setting": "[6]", "result": "> 100 µM (inactive)"}, {"measurement": "GI50", "setting": "[7]", "result": "> 100 µM (inactive)"}, {"measurement": "GI50", "setting": "[8]", "result": "> 100", "unit": "µM"}, {"measurement": "GI50", "setting": "[9]", "result": "> 100 µM (inactive)"}, {"measurement": "GI50", "setting": "[10]", "result": "> 100 µM (inactive)"}, {"measurement": "GI50", "setting": "[11]", "result": "> 100 µM (inactive)"}, {"measurement": "GI50", "setting": "[12]", "result": "> 100 µM (inactive)"}, {"measurement": "GI50", "setting": "[13]", "result": "> 100 µM (inactive)"}, {"measurement": "GI50", "setting": "[14]", "result": "> 100 µM (inactive)"}, {"measurement": "GI50", "setting": "[15]", "result": "> 100 µM (inactive)"}, {"measurement": "GI50", "setting": "[16]", "result": "> 100 µM (inactive)"}, {"measurement": "GI50", "setting": "[17]", "result": "> 100 µM (inactive)"}, {"measurement": "GI50", "setting": "[18]", "result": "> 100 µM (inactive)"}, {"measurement": "GI50", "setting": "[19]", "result": "> 100 µM (inactive)"}, {"measurement": "GI50", "setting": "[20]", "result": "> 100 µM (inactive)"}]}
{"smiles": "COc1c2ccoc2cc2oc(=O)ccc12", "note": "[BERGAPTEN]", "values": [{"measurement": "GI50", "setting": "[1]", "result": "> 100 µM (inactive)"}, {"measurement": "GI50", "setting": "[2]", "result": "> 100 µM (inactive)"}, {"measurement": "GI50", "setting": "[3]", "result": "> 100 µM (inactive)"}, {"measurement": "GI50", "setting": "[4]", "result": "> 100 µM (inactive)"}, {"measurement": "GI50", "setting": "[5]", "result": "67.9 µM (inactive)"}, {"measurement": "GI50", "setting": "[6]", "result": "> 100 µM (inactive)"}, {"measurement": "GI50", "setting": "[7]", "result": "> 100 µM (inactive)"}, {"measurement": "GI50", "setting": "[8]", "result": "> 100", "unit": "µM"}, {"measurement": "GI50", "setting": "[9]", "result": "> 100 µM (inactive)"}, {"measurement": "GI50", "setting": "[10]", "result": "> 100 µM (inactive)"}, {"measurement": "GI50", "setting": "[11]", "result": "> 100 µM (inactive)"}, {"measurement": "GI50", "setting": "[12]", "result": "65.5 µM (inactive)"}, {"measurement": "GI50", "setting": "[13]", "result": "> 100 µM (inactive)"}, {"measurement": "GI50", "setting": "[14]", "result": "> 100 µM (inactive)"}, {"measurement": "GI50", "setting": "[15]", "result": "89.1 µM (inactive)"}, {"measurement": "GI50", "setting": "[16]", "result": "> 100 µM (inactive)"}, {"measurement": "GI50", "setting": "[17]", "result": "> 100 µM (inactive)"}, {"measurement": "GI50", "setting": "[18]", "result": "> 100 µM (inactive)"}, {"measurement": "GI50", "setting": "[19]", "result": "> 100 µM (inactive)"}, {"measurement": "GI50", "setting": "[20]", "result": "> 100 µM (inactive)"}]}
{"smiles": "CCOC(=O)C1(C(=O)OCC)OC(C)=NC1(C(=O)OC)C(=O)OC", "values": [{"measurement": "GI50", "setting": "[1]", "result": "> 100 µM (inactive)"}, {"measurement": "GI50", "setting": "[2]", "result": "> 100 µM (inactive)"}, {"measurement": "GI50", "setting": "[3]", "result": "> 100 µM (inactive)"}, {"measurement": "GI50", "setting": "[4]", "result": "> 27.7 µM (inactive)"}, {"measurement": "GI50", "setting": "[5]", "result": "> 100 µM (inactive)"}, {"measurement": "GI50", "setting": "[6]", "result": "> 100 µM (inactive)"}, {"measurement": "GI50", "setting": "[7]", "result": "> 100 µM (inactive)"}, {"measurement": "GI50", "setting": "[8]", "result": "> 100", "unit": "µM"}, {"measurement": "GI50", "setting": "[9]", "result": "> 100 µM (inactive)"}, {"measurement": "GI50", "setting": "[10]", "result": "> 100 µM (inactive)"}, {"measurement": "GI50", "setting": "[11]", "result": "> 100 µM (inactive)"}, {"measurement": "GI50", "setting": "[12]", "result": "> 100 µM (inactive)"}, {"measurement": "GI50", "setting": "[13]", "result": "> 100 µM (inactive)"}, {"measurement": "GI50", "setting": "[14]", "result": "> 100 µM (inactive)"}, {"measurement": "GI50", "setting": "[15]", "result": "> 32.5 µM (inactive)"}, {"measurement": "GI50", "setting": "[16]", "result": "> 100 µM (inactive)"}, {"measurement": "GI50", "setting": "[17]", "result": "> 100 µM (inactive)"}, {"measurement": "GI50", "setting": "[18]", "result": "> 100 µM (inactive)"}, {"measurement": "GI50", "setting": "[19]", "result": "> 75.3 µM (inactive)"}, {"measurement": "GI50", "setting": "[20]", "result": "> 100 µM (inactive)"}]}
